Where a name gives a salt, the structure may show the parent alone.
Tested on: HCT116
Conditions: 72 h
Procedure, shortened: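 Each well of the 1536-well plates received 250 HCT116 cells, which attached over 5 h. Luminescence was measured with CellTiter-Glo, scaled with vehicle as 0% and positive control as -100%, and pattern-corrected. A four-parameter Hill fit yielded IC50 and maximal efficacy.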

SMILES	IC50 cell viability (ICRF193 0 nM) [µM]	IC50 cell viability (ICRF193 200 nM) [µM]
CN(C)[C@@H]1C(O)=C(C(N)=O)C(=O)[C@@]2(O)C(O)=C3C(=O)c4c(O)cccc4[C@@](C)(O)[C@H]3C[C@@H]12 [Tetracycline hydrochloride]	> 45.8	> 45.8
O=[N+]([O-])O[C@H]1CO[C@H]2[C@@H]1OC[C@H]2O[N+](=O)[O-] [Isosorbide dinitrate]	> 45.8	> 45.8
O=c1[nH]c2ccccc2n1CCCN1CCC(n2c(=O)[nH]c3cc(Cl)ccc32)CC1 [Domperidone]	> 45.8	> 45.8
Nc1nnc(-c2cccc(Cl)c2Cl)c(N)n1 [Lamotrigine]	> 45.8	> 45.8
CC1=C(C)C(=O)C(C(CCCCCC(=O)O)c2ccccc2)=C(C)C1=O (centres undefined) [Seratrodast]	> 45.8	> 45.8
CCCCOc1cc(C(=O)NCCN(CC)CC)c2ccccc2n1 [Dibucaine]	> 45.8	> 45.8
CC(C)(O)[C@@H]1[C@H]2OC(=O)[C@@H]1[C@]1(O)C[C@H]3O[C@]34C(=O)O[C@H]2[C@]14C [PICROTIN]	> 45.8	> 45.8
S=C(SSC(=S)N1CCCCC1)N1CCCCC1 [Dicyclopentamethylenethiuram disulfide]	> 45.8	> 45.8
Cc1cc(Nc2ccccc2C(=O)O)ccc1Cl [2-[(4-Chloro-3-methylphenyl)amino]benzoic acid]	> 45.8	> 45.8
CC(C)/N=c1\cc2n(-c3ccc(Cl)cc3)c3ccccc3nc-2cc1Nc1ccc(Cl)cc1 [Clofazimine]	> 45.8	> 45.8
C[C@H](O)[C@H]1CC[C@H]2[C@@H]3CC[C@@H]4C[C@H](O)CC[C@]4(C)[C@H]3CC[C@]12C [Pregnandiol]	> 45.8	> 45.8
CC(=O)N(c1onc(C)c1C)S(=O)(=O)c1ccc(N)cc1 [Sulfisoxazole acetal]	> 45.8	> 45.8
CN(C(=O)/C=C/c1ccoc1)[C@@H]1CC[C@@]2(O)[C@H]3Cc4ccc(O)c5c4[C@@]2(CCN3CC2CC2)[C@H]1O5 [Nalfurafine hydrochloride]	> 45.8	> 45.8
C=C(CC)C(=O)c1ccc(OCC(=O)O)c(Cl)c1Cl [Ethacrynic acid]	> 45.8	> 45.8
CCCCCCCCCC(=O)NO [Sodium decanehydroxamate]	> 45.8	> 45.8
COC1=C(OC)C(=O)C(C/C=C(\C)CC/C=C(\C)CC/C=C(\C)CC/C=C(\C)CC/C=C(\C)CC/C=C(\C)CC/C=C(\C)CC/C=C(\C)CC/C=C(\C)CCC=C(C)C)=C(C)C1=O [Coenzyme Q10]	> 45.8	> 45.8
Nc1c(CC(=O)O)cccc1C(=O)c1ccc(Br)cc1 [Bromfenac sodium sesquihydrate]	> 45.8	> 45.8
C/C(=C(\CCO)SS/C(CCO)=C(/C)N(C=O)Cc1cnc(C)nc1N)N(C=O)Cc1cnc(C)nc1N [Thiamine disulfide]	> 45.8	> 45.8
CCC[C@@H]1C[C@@H](C(=O)N[C@@H]([C@H]2O[C@H](SC)[C@H](O)[C@@H](O)[C@H]2O)[C@H](C)Cl)N(C)C1 [Clindamycin hydrochloride]	> 45.8	> 45.8
C[C@]12CC[C@@H]3c4ccc(O)cc4CC[C@H]3[C@@H]1CCC2=O [Estrone]	> 45.8	> 45.8
CC(=O)Oc1c(C)c(C)c2c(c1C)CCC(C)(CCCC(C)CCCC(C)CCCC(C)C)O2 (racemic) [dl-alpha-Tocopheryl acetate]	> 45.8	> 45.8

SMILES	IC50 cell viability (ICRF193 0 nM) [µM]	IC50 cell viability (ICRF193 200 nM) [µM]
O=C(NCCO[N+](=O)[O-])c1cccnc1 [Nicorandil]	> 45.8	> 45.8
O=C(O)C(=O)Nc1cccc(-c2nnn[nH]2)c1 [Acitazanolast]	> 45.8	> 45.8
N=C(N)NS(=O)(=O)c1ccc(N)cc1 [Sulfaguanidine]	> 45.8	> 45.8
C#C[C@]1(O)C=C[C@H]2[C@@H]3CCC4=CC(=O)CC[C@@H]4[C@H]3CC[C@@]21CC [Gestodene]	> 45.8	> 45.8
Nc1ccn([C@@H]2CS[C@H](CO)O2)c(=O)n1 [Lamivudine]	> 45.8	> 45.8
CCOC(=O)COc1ccc2c(=O)cc(-c3ccccc3)oc2c1 [EFLOXATE]	> 45.8	> 45.8
CC1(C)S[C@@H]2[C@H](N3C(=O)[C@@H](c4ccccc4)NC3(C)C)C(=O)N2[C@H]1C(=O)O [HETACILLIN POTASSIUM]	> 45.8	> 45.8
CCC1NC(=O)c2cc(S(N)(=O)=O)c(Cl)cc2N1 (centres undefined) [Quinethazone]	> 45.8	> 45.8
CC(C(=O)O)c1ccc(C(=O)c2ccccc2)s1 (centres undefined) [Tiaprofenic acid]	> 45.8	> 45.8
CCCC(=O)O[C@]1(C(=O)COC(=O)CC)[C@@H](C)C[C@H]2[C@@H]3CCC4=CC(=O)C=C[C@]4(C)[C@@]3(F)[C@@H](O)C[C@@]21C [Betamethasone butyrate propionate]	> 45.8	> 45.8
O=C1C(CC[S+]([O-])c2ccccc2)C(=O)N(c2ccccc2)N1c1ccccc1 (centres undefined) [SULFINPYRAZONE]	> 45.8	> 45.8
CCC(=O)O[C@]1(C(=O)CCl)[C@@H](C)C[C@H]2[C@@H]3C[C@H](F)C4=CC(=O)C=C[C@]4(C)[C@@]3(F)[C@@H](O)C[C@@]21C [Halobetasol Propionate]	> 45.8	> 45.8
NCCCNCCSP(=O)(O)O [Amifostine]	> 45.8	> 45.8
Cc1ccc(C(=O)C(C)CN2CCCCC2)cc1 (centres undefined) [Tolperisone hydrochloride]	> 45.8	> 45.8
CCc1ccc(Cc2ccc3c(c2)[C@]2(OC3)O[C@H](CO)[C@@H](O)[C@H](O)[C@H]2O)cc1 [Tofogliflozin (hydrate)]	> 45.8	> 45.8
OC(CCN1CCCCC1)(c1ccccc1)c1ccccc1 [Pridinol]	> 45.8	> 45.8
CCOCCOC(=O)/C=C/c1ccc(OC)cc1 [Cinoxate]	> 45.8	> 45.8
C=CCOc1cc(Cl)ccc1C(=O)NCCN(CC)CC [Alloclamide]	> 45.8	> 45.8
O=C(O)C(O)C(O)C(=O)O (stereo not drawn) [D(-)-Tartaric acid]	> 45.8	> 45.8
C[N+]1(C)CCN(CC(O)(c2ccccc2)C2CCCCC2)CC1 (centres undefined) [Hexocyclium]	> 45.8	> 45.8
Nc1ccc(S(=O)(=O)Nc2ccc(Cl)nn2)cc1 [Sulfachloropyridazine]	> 45.8	> 45.8

SMILES	IC50 cell viability (ICRF193 0 nM) [µM]	IC50 cell viability (ICRF193 200 nM) [µM]
CCCCNC(=N)NC(=N)N [Buformin]	> 45.8	> 45.8
CCCC(O)C(CC)CO (centres undefined) [2-Ethyl-1,3-hexanediol]	> 45.8	> 45.8
CC[C@]1(O)CC[C@H]2[C@@H]3CCC4=CCCC[C@@H]4[C@H]3CC[C@@]21C [Ethylestrenol]	> 45.8	> 45.8
C=Cc1ccccc1 [Styrene]	> 45.8	> 45.8
CN1C2=CC(=O)/C(=N\NC(N)=O)C=C2CC1S(=O)(=O)O (centres undefined) [Carbazochrome sodium sulfonate]	> 45.8	> 45.8
O=P1(NCCCl)OCCCN1CCCl (centres undefined) [Ifomide]	> 45.8	> 45.8
Nc1ccn([C@@H]2O[C@H](CO)[C@@H](O)[C@H]2O)c(=O)n1 [CYTIDINE]	> 45.8	> 45.8
CC1=C(/C=C/C(C)=C/C=C/C(C)=C/C=C/C=C(C)/C=C/C=C(C)/C=C/C2=C(C)CCCC2(C)C)C(C)(C)CCC1 [beta-Carotene]	> 45.8	> 45.8
CC1(C)[C@@H]2CC[C@@]1(C)[C@H](OC(=O)CSC#N)C2 [Thanite]	> 45.8	> 45.8
COc1ccc(NC(=O)c2ccc(C(=N)N(C)C)cc2)c(C(=O)Nc2ccc(Cl)cn2)c1 [Betrixaban]	> 45.8	> 45.8
CC(=O)Oc1cccc(C)c1 [m-Cresyl acetate]	> 45.8	> 45.8
OCCN(CCO)CCO [Triethanolamine]	> 45.8	> 45.8
OC(c1ccccc1)(c1ccccc1)C12CC[N+](CCOCc3ccccc3)(CC1)CC2 [Umeclidinium bromide]	> 45.8	> 45.8
O=C(O)CNC(=O)c1ccccc1I [2-Iodohippuric acid]	> 45.8	> 45.8
CC[C@@]1(c2ccccc2)NC(=O)N(C)C1=O [(S)-Mephenytoin]	> 45.8	> 45.8
Cc1nnc(C(=O)NC(C)(C)c2nc(C(=O)NCc3ccc(F)cc3)c(O)c(=O)n2C)o1 [Raltegravir]	> 45.8	> 45.8
CN(CCOc1ccc(CC2SC(=O)NC2=O)cc1)c1ccccn1 (centres undefined) [Rosiglitazone]	> 45.8	> 45.8
CCOC(=O)[N-]c1c[n+](N2CCOCC2)no1 [Molsidomine]	> 45.8	> 45.8
CC1(C)CCC(CN2CCN(c3ccc(C(=O)NS(=O)(=O)c4ccc(NCC5CCOCC5)c([N+](=O)[O-])c4)c(Oc4cnc5[nH]ccc5c4)c3)CC2)=C(c2ccc(Cl)cc2)C1 [Venetoclax (ABT-199)]	> 45.8	> 45.8
CC(C)CN(C[C@@H](OP(=O)(O)O)[C@H](Cc1ccccc1)NC(=O)O[C@H]1CCOC1)S(=O)(=O)c1ccc(N)cc1 [Fosamprenavir (Calcium Salt)]	> 45.8	> 45.8

Source: the supplement of paper PMC12137928
